# System: L. lactis HP
# Assay: Minimal inhibitory concentrations determined in liquid media
# Type: cell-based, Lactococcus lactis
# Conditions: serial two-fold dilution, Fig. S12
substance,measurement,value
lacticin 481 [wt-lacticin 481],Minimal inhibitory concentration,0.39 µM
